Test results as given in the NIST ThermoML archive (doi:10.1016/j.jct.2013.06.009).
± gives the expanded uncertainty stated by the source.

Test: mn = molality of the nth substance listed, in mol/kg
Conditions: 101.33 kPa, Liquid; for viscosity: Capillary tube (Ostwald / Ubbelohde) method; for mass density: Vibrating tube method

CO/N=C(\C(=O)N[C@@H]1C(=O)N2C(C(=O)O)=C(C[N+]3(C)CCCC3)CS[C@H]12)c1csc(N)n1.Cl.[Cl-] [cefepime dihydrochloride] + O
Conditions | mass density [kg/m3] | viscosity [mPa·s]
278.15 K, m1 = 0.01005 | 1002 ± 0.21 | 1.544 ± 0.032
278.15 K, m1 = 0.02017 | 1004.01 ± 0.21 | 1.57 ± 0.033
278.15 K, m1 = 0.0304 | 1006.02 ± 0.21 | 1.597 ± 0.033
278.15 K, m1 = 0.05103 | 1009.98 ± 0.21 | 1.649 ± 0.034
278.15 K, m1 = 0.07222 | 1013.97 ± 0.21 | 1.705 ± 0.036
278.15 K, m1 = 0.09333 | 1017.86 ± 0.21 | 1.766 ± 0.037
278.15 K, m1 = 0.1154 | 1021.84 ± 0.21 | 1.824 ± 0.038
278.15 K, m1 = 0.1343 | 1025.19 ± 0.21 | 1.88 ± 0.039
278.15 K, m1 = 0.1521 | 1028.29 ± 0.21 | 1.937 ± 0.041
283.15 K, m1 = 0.01005 | 1001.73 ± 0.21 | 1.324 ± 0.028
283.15 K, m1 = 0.02017 | 1003.73 ± 0.21 | 1.348 ± 0.028
283.15 K, m1 = 0.0304 | 1005.73 ± 0.21 | 1.371 ± 0.029
283.15 K, m1 = 0.05103 | 1009.67 ± 0.21 | 1.416 ± 0.03
283.15 K, m1 = 0.07222 | 1013.62 ± 0.21 | 1.463 ± 0.031
283.15 K, m1 = 0.09333 | 1017.47 ± 0.21 | 1.517 ± 0.032
283.15 K, m1 = 0.1154 | 1021.4 ± 0.21 | 1.566 ± 0.033
283.15 K, m1 = 0.1343 | 1024.71 ± 0.21 | 1.613 ± 0.034
283.15 K, m1 = 0.1521 | 1027.79 ± 0.21 | 1.663 ± 0.035
288.15 K, m1 = 0.01005 | 1001.11 ± 0.21 | 1.148 ± 0.024
288.15 K, m1 = 0.02017 | 1003.1 ± 0.21 | 1.17 ± 0.025
288.15 K, m1 = 0.0304 | 1005.08 ± 0.21 | 1.19 ± 0.025
288.15 K, m1 = 0.05103 | 1008.98 ± 0.21 | 1.228 ± 0.026
288.15 K, m1 = 0.07222 | 1012.89 ± 0.21 | 1.269 ± 0.027
288.15 K, m1 = 0.09333 | 1016.7 ± 0.21 | 1.316 ± 0.028
288.15 K, m1 = 0.1154 | 1020.61 ± 0.21 | 1.359 ± 0.028
288.15 K, m1 = 0.1343 | 1023.89 ± 0.21 | 1.4 ± 0.029
288.15 K, m1 = 0.1521 | 1026.93 ± 0.21 | 1.443 ± 0.03
293.15 K, m1 = 0.01005 | 1000.2 ± 0.21 | 1.013 ± 0.021
293.15 K, m1 = 0.02017 | 1002.18 ± 0.21 | 1.031 ± 0.022
293.15 K, m1 = 0.0304 | 1004.15 ± 0.21 | 1.049 ± 0.022
293.15 K, m1 = 0.05103 | 1008.03 ± 0.21 | 1.082 ± 0.023
293.15 K, m1 = 0.07222 | 1011.91 ± 0.21 | 1.12 ± 0.023
293.15 K, m1 = 0.09333 | 1015.7 ± 0.21 | 1.161 ± 0.024
293.15 K, m1 = 0.1154 | 1019.57 ± 0.21 | 1.199 ± 0.025
293.15 K, m1 = 0.1343 | 1022.82 ± 0.21 | 1.235 ± 0.026
293.15 K, m1 = 0.1521 | 1025.83 ± 0.21 | 1.273 ± 0.027
298.15 K, m1 = 0.01005 | 999.04 ± 0.21 | 0.899 ± 0.019
298.15 K, m1 = 0.02017 | 1001.01 ± 0.21 | 0.9159 ± 0.019
298.15 K, m1 = 0.0304 | 1002.97 ± 0.21 | 0.9314 ± 0.019
298.15 K, m1 = 0.05103 | 1006.84 ± 0.21 | 0.9593 ± 0.02
298.15 K, m1 = 0.07222 | 1010.7 ± 0.21 | 0.9939 ± 0.021
298.15 K, m1 = 0.09333 | 1014.46 ± 0.21 | 1.029 ± 0.022
298.15 K, m1 = 0.1154 | 1018.29 ± 0.21 | 1.065 ± 0.022
298.15 K, m1 = 0.1343 | 1021.51 ± 0.21 | 1.096 ± 0.023
298.15 K, m1 = 0.1521 | 1024.5 ± 0.21 | 1.13 ± 0.024
303.15 K, m1 = 0.01005 | 997.63 ± 0.21 | 0.8046 ± 0.017
303.15 K, m1 = 0.02017 | 999.59 ± 0.21 | 0.8192 ± 0.017
303.15 K, m1 = 0.0304 | 1001.53 ± 0.21 | 0.8325 ± 0.017
303.15 K, m1 = 0.05103 | 1005.38 ± 0.21 | 0.8581 ± 0.018
303.15 K, m1 = 0.07222 | 1009.21 ± 0.21 | 0.8888 ± 0.019
303.15 K, m1 = 0.09333 | 1012.95 ± 0.21 | 0.9175 ± 0.019
303.15 K, m1 = 0.1154 | 1016.75 ± 0.21 | 0.9513 ± 0.02
303.15 K, m1 = 0.1343 | 1019.94 ± 0.21 | 0.9813 ± 0.021
303.15 K, m1 = 0.1521 | 1022.9 ± 0.21 | 1.01 ± 0.021
308.15 K, m1 = 0.01005 | 996.01 ± 0.21 | 0.7235 ± 0.015
308.15 K, m1 = 0.02017 | 997.96 ± 0.21 | 0.7352 ± 0.015
308.15 K, m1 = 0.0304 | 999.9 ± 0.21 | 0.7465 ± 0.016
308.15 K, m1 = 0.05103 | 1003.71 ± 0.21 | 0.7718 ± 0.016
308.15 K, m1 = 0.07222 | 1007.53 ± 0.21 | 0.7974 ± 0.017
308.15 K, m1 = 0.09333 | 1011.24 ± 0.21 | 0.8261 ± 0.017
308.15 K, m1 = 0.1154 | 1015.02 ± 0.21 | 0.8553 ± 0.018
308.15 K, m1 = 0.1343 | 1018.18 ± 0.21 | 0.881 ± 0.018
308.15 K, m1 = 0.1521 | 1021.12 ± 0.21 | 0.904 ± 0.019
313.15 K, m1 = 0.01005 | 994.18 ± 0.21 | 0.6561 ± 0.014
313.15 K, m1 = 0.02017 | 996.12 ± 0.21 | 0.6652 ± 0.014
313.15 K, m1 = 0.0304 | 998.04 ± 0.21 | 0.6753 ± 0.014
313.15 K, m1 = 0.05103 | 1001.85 ± 0.21 | 0.6976 ± 0.015
313.15 K, m1 = 0.07222 | 1005.64 ± 0.21 | 0.7193 ± 0.015
313.15 K, m1 = 0.09333 | 1009.33 ± 0.21 | 0.7448 ± 0.016
313.15 K, m1 = 0.1154 | 1013.07 ± 0.21 | 0.7705 ± 0.016
313.15 K, m1 = 0.1343 | 1016.22 ± 0.21 | 0.7947 ± 0.017
313.15 K, m1 = 0.1521 | 1019.14 ± 0.21 | 0.8162 ± 0.017
